Measurements taken from PMC5306062, “Pharmacology and toxicology of the novel investigational agent Cantrixil (TRX-E-002-1)” (Cancer Chemotherapy and Pharmacology, 2016).

Experiments:
[1] = Dog 14-day pilot toxicity study with toxicokinetics, intraperitoneal; settings: both, beagle, dog, plasma
Method: For the dog 14-day pilot study, male and female beagle dogs were dosed once daily with intraperitoneal injections of vehicle (1:2 dilutions of 20% SBECD in 0.9% saline) or Cantrixil (10, 30 or 100 mg/kg) for 14 days. The doses were administered via an implanted catheter.

[2] = system: co-cultures which mimic tumour heterogeneity; test: Co-culture studies with cisplatin; assay type: cell-based, human
Text: (§1) Tumour recurrence post-chemotherapy is caused by the regrowth of the surviving innately drug-resistant cancer stem cells that remain in tumour niches during and post-chemotherapy. The expansion of this chemo-resistant cancer cell population, coupled with upregulation of pro-survival pathways due to drug pressure, is thought to be responsible for the development of chemo-resistant recurrent disease. Further, the inherent heterogeneity of ovarian tumours consists of epithelial cells with varying potential for stemness, and a population of cancer cells with varying mesenchymal status and invasiveness potential. Therefore, to improve survival, a practical approach is the use of novel therapies that can induce cell death in these various subtypes of ovarian cancer cells. TRX-E-002-1 was assessed against ovarian cancer stem cell line OCSC2, characterised by their expression of stem cell markers including CD44 and […] [22]. A major characteristic of these cells is that they are drug resistant, able to form self-renewing spheroids in non-adherent culture, and recreate disseminated drug-resistant ovarian tumours that have a high degree of heterogeneity similar to the clinical profile observed in patients when inoculated into the peritoneal cavity of an immune-compromised mouse.

[3] = system: micronucleated polychromatic erythrocytes (PCEs) in bone marrow; test: Bone marrow micronucleus test; assay type: in vivo, ARC(S) Swiss mice; settings: for frequency of micronucleated PCEs: female mice
Method: The assays were performed in compliance with GLP regulations.
The bone marrow micronucleus test was the in vivo part of the ICH genotoxicity testing battery and was conducted in ARC(S) Swiss mice. Eight groups of mice (10/sex/group) were given an intraperitoneal injection of vehicle (20% w/v SBECD) or Cantrixil at 50, 200 or 400 mg/kg and were killed 24 or 48 h later. Dimethyl-1,2 benzanthracene was used as the positive control. After preparation of the bone marrow cells, the number of micronucleated polychromatic erythrocytes (PCEs) was determined in 4000 PCEs per animal, and the proportion of PCEs in the total erythrocyte population in bone marrow was calculated from the examination of at least 500 erythrocytes as an index of bone marrow toxicity. […] The proportion of PCEs in the total erythrocyte population was decreased in both sexes at the 200 and 400 mg/kg doses at both kill times. TRX-E-002-1 is therefore considered clastogenic in this system at the described concentrations in vivo [the equivalent 200/400 mg/kg dose in a […] is 16.2 mg/kg (600 mg/m^2)/32.4 mg/kg (1200 mg/m^2) in a 60-kg human].

[4] = system: chemo-sensitive CD44−/MyD88− ovarian cancer cell lines; test: Cell death in chemo-sensitive ovarian cancer cell lines; assay type: cell-based, human; settings: grown separately or in co-cultures
Text: as §1

[5] = Dog GLP 28-day repeat-dose study, intraperitoneal three times per week; assay type: in vivo, beagle dogs
Method: For the dog GLP 28-day repeat-dose study, beagle dogs received intraperitoneal injections of vehicle (3:20 dilution of 20% SBECD in 0.9% saline) or Cantrixil (1, 10 or 30 mg/kg) three times per week for 4 weeks via an implanted catheter. Blood samples were collected from all dogs at 0.25, 0.5, 1, 2, 4 and 24 h after dosing on Days 1 and 26. […] Mean C max and AUClast values were similar in males and females and were greater than proportional to dose. […] Corresponding mean AUClast values on Day 1 were 71.4/80.5, 2810/2260 and 10,500/11,000 ng h/mL, respectively, for males/females.
Treatment-related clinical signs observed in males and females at 10 or 30 mg/kg included emesis, and soft or liquid faeces. […] Food consumption was affected to a lesser extent in females at 30 mg/kg and was not associated with discernible effect on body weight gain.
Similar changes were apparent but less severe in high-dose males and females after the 2-week recovery period. Coagulation parameters, serum chemistry, urinalysis and bone marrow examinations were unremarkable.
Red discoloration in the caecum was also observed in all male dogs and one female dog in the 30 mg/kg group. […] No treatment-related macroscopic abnormalities were observed after the recovery period.
In summary, the main toxicity findings following intraperitoneal administration of TRX-E-002-1 30 mg/kg in SBECD to beagle dogs three times per week for 4 weeks were emesis, soft and/or liquid faeces, leukocytosis with elevated neutrophil and monocyte counts, red discoloration in the caecum and degenerative changes in male reproductive organs. Some of these effects were also observed at the mid-dose of 10 mg/kg, while 1 mg/kg was a clear no-effect dose. […] No differences between sexes were apparent in toxic effects or systemic exposure, and the NOAEL for combined sexes was 10 mg/kg. The 10 mg/kg dose was also considered the highest non-severely toxic dose (HNSTD), and mean plasma AUClast for combined sexes at this dose was 2310 ng h/mL on Day 26.

Compound: COc1cc([C@@H]2COc3c(ccc(O)c3C)[C@@H]2c2ccc(O)cc2)cc(OC)c1O [TRX-E-002-1, (+) cis-4-(para-hydroxyphenyl)-7,4′-dihydroxy-3′,5′-dimethoxy-8-methylisoflavan]
- half-life ([1]; intraperitoneal): 2 to 2.7 h
- Tmax ([1]; ip, 100 mg/kg): 0.5 to 2 h
- effect on effectiveness of cisplatin [2]: enhanced the effectiveness of cisplatin
- clastogenicity, overall conclusion ([3]; at the described concentrations in vivo): clastogenic
- proportion of PCEs in the total erythrocyte population ([3]; both sexes, 200 and 400 mg/kg, both kill times): decreased
- frequency of micronucleated PCEs ([3]; 200 mg/kg i.p., 24 and 48 h): significantly increased
- frequency of micronucleated PCEs ([3]; 400 mg/kg i.p., 24 h): significantly increased
- slight increases in frequency of micronucleated PCEs ([3]; male mice, 200 and 400 mg/kg i.p.): not statistically significant
- induction of cell death [4]: able to induce cell death
- accumulation with three times weekly dosing ([5]; Day 26 vs Day 1): no accumulation
- NOAEL at 4 weeks ([5]; both sexes, beagle, dog, in vivo, intraperitoneal, combined sexes): 10 mg/kg
- AUC(0-t) ([5]; both sexes, beagle, dog, plasma, intraperitoneal, combined sexes, 10 mg/kg, Day 26, read-out: mean plasma AUClast): 2310 ng·h/mL
- clear no-effect dose ([5]; dog, in vivo): 1 mg/kg
- highest non-severely toxic dose (HNSTD) ([5]; dog, in vivo): 10 mg/kg
- NOAEL at 4 weeks ([5]; female, beagle, dog, in vivo, intraperitoneal, females): 30 mg/kg
- NOAEL at 4 weeks ([5]; male, beagle, dog, in vivo, intraperitoneal, males): 10 mg/kg
